{
  "source": "patent US20230117205A1",
  "about": "“B7-H4 ANTIBODY-DRUG CONJUGATES FOR THE TREATMENT OF CANCER” (SEAGEN INC., priority 2021, published 2023)",
  "key": {"OVCAR3 xenograft model": {"test_system": "OVCAR3 xenograft model", "experiment": "OVCAR3 xenograft, Study OVCAR3-e314", "type": "in vivo, SCID mice", "conditions": "3 mg/kg, three weekly doses, i.v.", "protocol": "Tumor volume was measured twice weekly until study day 60.\nFemale SCID mice were implanted with OVCAR3 tumor fragments (˜1 mm^3) subcutaneously at Charles River Discovery Services (NC). Once tumor volumes reached 150-200 mm^3, mice were dosed with 3 mg/kg of ADC every seven days for three total doses (q7dx3). Tumor volumes were measured twice weekly, and animals were euthanized when tumor volume reached 1000 mm^3. Stock concentrations of ADC were diluted to a desired concentration (with PBS) and injected i.v. into each treatment group.\nTumor growth inhibition (TGI) for each treatment group compared to the untreated group was analyzed on study day 26 as follows: % TGI=[1−(([…])/MTVuntreated)]*100, where MTV is the mean tumor volume. Statistical significance was determined using the Mann-Whitney U test (two-tailed)."}, "[1]": {"test_system": "MDA-MB-468 xenograft tumors", "experiment": "RNAseq of treated MDA-MB-468 xenograft tumors", "type": "in vivo, NSG mice", "conditions": "single 3 mg/kg dose; compared to vehicle control", "protocol": "(§1) Specifically, female NSG mice were implanted with 1×10^6 MDA-MB-468 cells in 25% Matrigel H C subcutaneously. Once tumor volumes reached ˜250-300 mm^3, mice were randomized into treatment groups of 6 mice each and treated with a single 3 mg/kg dose of ADC or mAb, or vehicle control (20 mM Histidine buffer, pH 6.0) injected intraperitoneally (i.p.). Stock concentrations of ADC were diluted to desired concentration with 20 mM Histidine buffer, pH 6.0 or and stock concentration of mAb were diluted to desired concentration with 0.01% Tween20 in PBS. Twenty-four hours prior to dosing, each animal was treated with 10 mg/kg hIVIG. One week following treatment, tumors were harvested, cut in half, and processed for RNAseq (frozen at −80° C.) or formalin-fixed and paraffin-embedded for immunohistochemical (IHC) analysis.\nFor RNAseq, RNA was extracted from tumors and library preparation for […] sequencing was performed using PolyA selection. RNA was sequenced using the Illumina HiSeq platform 2×150 bp configuration. […] Adaptors were trimmed using cutadapt version 1.16, reads were aligned to a composite (GRCh38(h38)/GRCm38(mm10)) genome using STAR version 2.5.2. Transcripts and genes were quantitated via RSEM version 1.2.31. Quantitative and statistical differences were determined between groups of samples using DESeq2 version 1.28.1. […]"}, "[2]": {"test_system": "F4/80+ macrophages in MDA-MB-468 xenograft tumors", "experiment": "IHC for F4/80+ macrophages in MDA-MB-468 xenograft tumors", "type": "in vivo, NSG mice", "conditions": "single 3 mg/kg dose; 7 days after treatment", "protocol": "as §1\nFor IHC, FFPE blocks were sectioned at 4 μm and sections were placed on charged slides. Slides were baked for 1 hr at 60° C. […]\nScanned images were analyzed with Halo image analysis software v. 3.1.1076 (Indica Labs), using the area quantification algorithm for CD11c and F4/80 and the cytonuclear algorithm for all other antibodies. […] Percent area of positive tissue, tumor and stroma were determined. […]"}},
  "data": [
    {"substance": "SGN-B7H4V: ADC of fully human IgG1 anti-B7-H4 mAb conjugated to monomethyl auristatin E (MMAE) via a protease-cleavable valine-citrulline linker (vedotin)", "values": [
      {"measurement": "mean tumor volume compared to the untreated group", "setting": "OVCAR3 xenograft model", "result": "reduction in mean tumor volume"},
      {"measurement": "Tumor growth inhibition (TGI)", "setting": "OVCAR3 xenograft model; study day 26, compared to untreated", "result": 48, "unit": "%"},
      {"measurement": "upregulation of human transcripts encoding cytokines (CXCL10 and CXCL1)", "setting": "[1]", "result": "2-3 fold"},
      {"measurement": "proportion of F4/80+ macrophages in tumor nest and stroma", "setting": "[2]", "result": "increase in the proportion of F4/80+ macrophages"}
    ]}
  ]
}
